This assay addresses T1, human μ opiate receptor (Homo sapiens, UniProt P35372).
T1 construct: purchased PerkinElmer Life Sciences, Zaventem, Belgium RB-HOM; host or cells: CHO-K1 cells (membrane preparation)
Briefly: Affinity for the human μ opiate receptor ([3H]-naloxone displacement, CHO-K1 receptor membrane preparation, SPA). It counts as binding. Particulars: test concentration of 1 μM; read-out: μ (binding on the μ opioid receptor, % inhibition). The method, boiled down: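 Scintillation proximity binding on human μ receptor membranes from CHO-K1 cells used 1 nmol/l [3H]-naloxone over 90 min at room temperature in 50 mmol/l Tris-HCl, 0.06% BSA. Percent inhibition was recorded at 1 μM.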
T1 sequence (P35372 whole entry): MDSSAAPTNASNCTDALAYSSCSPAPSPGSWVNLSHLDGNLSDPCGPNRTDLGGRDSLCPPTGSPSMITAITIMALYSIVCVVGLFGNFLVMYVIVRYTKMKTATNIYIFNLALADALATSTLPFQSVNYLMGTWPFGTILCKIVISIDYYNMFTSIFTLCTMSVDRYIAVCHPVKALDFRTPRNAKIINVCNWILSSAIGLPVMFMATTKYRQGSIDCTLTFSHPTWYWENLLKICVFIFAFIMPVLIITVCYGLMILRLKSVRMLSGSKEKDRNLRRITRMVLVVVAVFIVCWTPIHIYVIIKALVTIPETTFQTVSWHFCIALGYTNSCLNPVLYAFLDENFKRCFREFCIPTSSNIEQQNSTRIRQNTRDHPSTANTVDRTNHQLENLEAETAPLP
As for `COc1ccc(S(=O)(=O)N2CCCCC2COCC(=O)NCC2CCC(C(c3cccc(F)c3)N(C)C)CC2)cc1` (stereo not drawn) [Example 179, N-((4-((dimethylamino)(3-fluorophenyl)methyl)cyclohexyl)methyl)-2-((1-(4-methoxyphenylsulfonyl)piperidin-2-yl)methoxy)acetamide], the inhibition (usually the change of the read-out against control, counted positive when it falls) at 1 µM came out at 85%. The same measure for `COc1cc(C)c(S(=O)(=O)N2CCN(CCOCC(=O)NCCC3CCC(C(c4cccc(F)c4)N(C)C)CC3)CC2)c(C)c1C` (stereo not drawn) [Example 200, N-(2-(4-((dimethylamino)(3-fluorophenyl)methyl)cyclohexyl)ethyl)-2-(2-(4-(4-methoxy-2,3,6-trimethylphenylsulfonyl)piperazin-1-yl)ethoxy)acetamide]: 80%; for `CCN(CCOCC(=O)NC1CCC(C(c2cccc(F)c2)N(C)C)CC1)S(=O)(=O)c1c(C)cc(OC)c(C)c1C` (stereo not drawn) [Example 176, N-(4-((dimethylamino)(3-fluorophenyl)methyl)cyclohexyl)-2-(2-(N-ethyl-4-methoxy-2,3,6-trimethylphenylsulfonamido)ethoxy)acetamide]: 87%; for `COc1ccc(S(=O)(=O)N2Cc3ccccc3CC2COCC(=O)NCC2CCC(C(c3cccc(F)c3)N(C)C)CC2)cc1` (stereo not drawn) [Example 163, N-((4-((dimethylamino)(3-fluorophenyl)methyl)cyclohexyl)methyl)-2-((2-(4-methoxyphenylsulfonyl)-1,2,3,4-tetrahydroisoquinolin-3-yl)methoxy)acetamide]: 87%.

Consider `COc1cc(C)c(S(=O)(=O)N2CCCC(OCC(=O)NCC3CCC(C(c4cccc(F)c4)N(C)C)CC3)C2)c(C)c1C` (stereo not drawn) [Example 145, N-((4-((dimethylamino)(3-fluorophenyl)methyl)cyclohexyl)methyl)-2-(1-(4-methoxy-2,3,6-trimethylphenylsulfonyl)piperidin-3-yloxy)acetamide], for which the inhibition at 1 µM worked out at 87%. The same measure for `CN(C)C(c1ccccc1)C1CCC(CNC(=O)COCC2CCCN2S(=O)(=O)c2ccc(Cl)c(Cl)c2)CC1` (stereo not drawn) [Example 18, 2-((1-(3,4-dichlorophenylsulfonyl)pyrrolidin-2-yl)methoxy)-N-((4-((dimethylamino)(phenyl)methyl)cyclohexyl)methyl)acetamide]: 98%; for `Cc1ccc(S(=O)(=O)N2CCC(OCC(=O)NC3CCC(C(c4cccs4)N(C)C)CC3)C2)cc1` (stereo not drawn) [Example 156, N-(4-((dimethylamino)(thiophen-2-yl)methyl)cyclohexyl)-2-(1-tosylpyrrolidin-3-yloxy)acetamide]: 80%; for `COc1ccc(S(=O)(=O)N2Cc3ccccc3CC2COCC(=O)NCC2CCC(C(c3ccccc3)N(C)C)CC2)cc1` (stereo not drawn) [Example 19, N-((4-((dimethylamino)(phenyl)methyl)cyclohexyl)methyl)-2-((2-(4-methoxyphenylsulfonyl)-1,2,3,4-tetrahydroisoquinolin-3-yl)methoxy)acetamide]: 98%. The same measure for `COc1cc(C)c(S(=O)(=O)N2CCC(OCC(=O)NC3CCC(C(c4cccc(F)c4)N(C)C)CC3)C2)c(C)c1C` (stereo not drawn) [Example 189, N-(4-((dimethylamino)(3-fluorophenyl)methyl)cyclohexyl)-2-(1-(4-methoxy-2,3,6-trimethylphenylsulfonyl)pyrrolidin-3-yloxy)acetamide]: 84%. The same measure for `Cc1ccc(S(=O)(=O)N(C)CCOCC(=O)NCC2CCC(C(c3ccccc3)N(C)C)CC2)cc1` (stereo not drawn) [Example 157, N-((4-((dimethylamino) (phenyl)methyl)cyclohexyl)methyl)-2-(2-(N,4-dimethylphenylsulfonamido)ethoxy)acetamide]: 87%.

As to `CN(C)C(c1cccs1)C1CCC(CNC(=O)COC2CCCCC2N(C)S(=O)(=O)c2ccc(Cl)c(Cl)c2)CC1` (stereo not drawn) [Example 31, 2-(2-(3,4-dichloro-N-methylphenylsulfonamido)cyclohexyloxy)-N-((4-((dimethylamino)(thiophen-2-yl)methyl)cyclohexyl)methyl)acetamide], the inhibition at 1 µM worked out at 97%. `COc1ccc(S(=O)(=O)N2CCCCC2COCC(=O)NCCC2CCC(C(c3cccs3)N(C)C)CC2)cc1` (stereo not drawn) [Example 30, N-(2-(4-((dimethylamino)(thiophen-2-yl)methyl)cyclohexyl)ethyl)-2-((1-(4-methoxyphenylsulfonyl)piperidin-2-yl)methoxy)acetamide]: the inhibition at 1 µM amounted to 97%. The same measure for `COc1cc(C)c(S(=O)(=O)N(CCOCC(=O)NC2CCC(C(c3ccccc3)N(C)C)CC2)Cc2ccccc2)c(C)c1C` (stereo not drawn) [Example 193, 2-(2-(N-benzyl-4-methoxy-2,3,6-trimethylphenylsulfonamido)ethoxy)-N-(4-((dimethylamino) (phenyl)methyl)cyclohexyl)acetamide]: 85%; for `COc1cc(C)c(S(=O)(=O)N(CCOCC(=O)NCCC2CCC(C(c3cccs3)N(C)C)CC2)Cc2ccccc2)c(C)c1` (stereo not drawn) [Example 149, 2-(2-(N-benzyl-4-methoxy-2,6-dimethylphenylsulfonamido)ethoxy)-N-(2-(4-((dimethylamino) (thiophen-2-yl)methyl)cyclohexyl)ethyl)acetamide]: 91%.

For `Cc1ccc(S(=O)(=O)N2CCC(OCC(=O)NC3CCC(C(c4cccc(F)c4)N(C)C)CC3)C2)cc1` (stereo not drawn) [Example 167, N-(4-((dimethylamino)(3-fluorophenyl)methyl)cyclohexyl)-2-(1-tosylpyrrolidin-3-yloxy)acetamide], the inhibition at 1 µM stood at 82%. Consider `CN(C)C(c1cccs1)C1CCC(NC(=O)COC2CCN(S(=O)(=O)c3ccccc3)C2)CC1` (stereo not drawn) [Example 194, N-(4-((dimethylamino)(thiophen-2-yl)methyl)cyclohexyl)-2-(1-(phenylsulfonyl)pyrrolidin-3-yloxy)acetamide], for which the inhibition at 1 µM is 83%. As for `CN(C)C(c1cccc(F)c1)C1CCC(NC(=O)COC2CCN(S(=O)(=O)c3cccc(C(F)(F)F)c3)C2)CC1` (stereo not drawn) [Example 139, N-(4-((dimethylamino)(3-fluorophenyl)methyl)cyclohexyl)-2-(1-(3-(trifluoromethyl)phenylsulfonyl)pyrrolidin-3-yloxy)acetamide], the inhibition at 1 µM was 83%. With `COc1cc(C)c(S(=O)(=O)N(CCOCC(=O)NCC2CCC(C(c3ccccc3)N(C)C)CC2)Cc2ccccc2)c(C)c1` (stereo not drawn) [Example 148, 2-(2-(N-benzyl-4-methoxy-2,6-dimethylphenylsulfonamido)ethoxy)-N-((4-((dimethylamino)(phenyl)methyl)cyclohexyl)methyl)acetamide], the inhibition at 1 µM was 90%.

`CN(C)C(c1cccc(F)c1)C1CCC(NC(=O)COCCN(C)S(=O)(=O)c2ccc(Cl)cc2)CC1` (stereo not drawn) [Example 196, 2-(2-(4-chloro-N-methylphenylsulfonamido)ethoxy)-N-(4-((dimethylamino)(3-fluorophenyl)methyl)cyclohexyl)acetamide]: the inhibition at 1 µM was found to be 81%. Take `COc1cc(C)c(S(=O)(=O)N2CCC(OCC(=O)NC3CCC(C(c4ccccc4)N(C)C)CC3)C2)c(C)c1` (stereo not drawn) [Example 165, N-(4-((dimethylamino)(phenyl)methyl)cyclohexyl)-2-(1-(4-methoxy-2,6-dimethylphenylsulfonyl)pyrrolidin-3-yloxy)acetamide]: the inhibition at 1 µM turned out to be 87%.

As to `CN(C)C(c1ccccc1)C1CCC(NC(=O)COCCN(C)S(=O)(=O)c2c(F)c(F)c(F)c(F)c2F)CC1` (stereo not drawn) [Example 136, N-(4-((dimethylamino)(phenyl)methyl)cyclohexyl)-2-(2-(2,3,4,5,6-pentafluoro-N-methylphenylsulfonamido)ethoxy)acetamide], the inhibition at 1 µM turned out to be 89%.

As for `Cc1cc(C)c(S(=O)(=O)N2CCC(OCC(=O)NCC3CCC(C(c4ccccc4)N(C)C)CC3)C2)c(C)c1` (stereo not drawn) [Example 26, N-((4-((dimethylamino)(phenyl)methyl)cyclohexyl)methyl)-2-(1-(mesitylsulfonyl)pyrrolidin-3-yloxy)acetamide], the inhibition at 1 µM is 97%. For the compound `COc1ccc(S(=O)(=O)N2CCCCC2COCC(=O)NCCC2CCC(C(c3cccc(F)c3)N(C)C)CC2)cc1` (stereo not drawn) [Example 180, N-(2-(4-((dimethylamino)(3-fluorophenyl)methyl)cyclohexyl)ethyl)-2-((1-(4-methoxyphenylsulfonyl)piperidin-2-yl)methoxy)acetamide], the inhibition at 1 µM is 90%. As to `COc1ccc(S(=O)(=O)N2Cc3ccccc3CC2COCC(=O)NCCC2CCC(C(c3cccc(F)c3)N(C)C)CC2)cc1` (stereo not drawn) [Example 190, N-(2-(4-((dimethylamino) (3-fluorophenyl)methyl)cyclohexyl)ethyl)-2-((2-(4-methoxyphenylsulfonyl)-1,2,3,4-tetrahydroisoquinolin-3-yl)methoxy)acetamide], the inhibition at 1 µM turned out to be 83%. The same measure for `COc1cc(C)c(S(=O)(=O)N2CCCC(OCC(=O)NC3CCC(C(c4cccs4)N(C)C)CC3)C2)c(C)c1C` (stereo not drawn) [Example 144, N-(4-((dimethylamino)(thiophen-2-yl)methyl)cyclohexyl)-2-(1-(4-methoxy-2,3,6-trimethylphenylsulfonyl)piperidin-3-yloxy)acetamide]: 89%; for `CN(C)C(c1cccc(F)c1)C1CCC(NC(=O)COCCN(C)S(=O)(=O)c2c(Cl)cccc2Cl)CC1` (stereo not drawn) [Example 171, 2-(2-(2,6-dichloro-N-methylphenylsulfonamido)ethoxy)-N-(4-((dimethylamino)(3-fluorophenyl)methyl)cyclohexyl)acetamide]: 84%; for `CN(C)C(c1ccccc1)C1CCC(CNC(=O)COCCN(C)S(=O)(=O)c2c(Cl)cccc2Cl)CC1` (stereo not drawn) [Example 13, 2-(2-(2,6-dichloro-N-methylphenylsulfonamido)ethoxy)-N-((4-((dimethylamino)(phenyl)methyl)cyclohexyl)methyl)acetamide]: 98%.

For the origin of these results see patent publication US8106055B2, “Substituted amide compounds” (Gruenenthal GmbH, priority 2007, dated 2012).
